Reference: patent US20150253330A1, “PRE-SELECTION OF SUBJECTS FOR THERAPEUTIC TREATMENT WITH AN HSP90 INHIBITOR BASED ON HYPOXIC STATUS” (Synta Pharmaceuticals Corp., priority 2012, published 2015)
Like-named read-outs stand apart in the source and are kept apart here. One block for each molecule: values may come before it.

Legend:
[1] = system: HIF-1α and VEGF; assay: Western blot of HIF-1α and VEGF in pancreatic cancer cell lines; assay type: cell-based; conditions: 50 nM, 24 h
Method: It's postulated that functional inhibition of Hsp90 by ganetespib can inhibit angiogenesis and growth in vitro and in vivo models of pancreatic cancer. PANC-1 and HPAC cell lines were treated with vehicle or G (50 nM) for 24 h and lysates were analyzed by Western blot. Egg CAM and matrigel plug assays were performed to quantify the effects of ganetespib on angiogenesis. Efficacy of ganetespib (100 mg/kg) was assessed in mice bearing HPAC and ASPC-1 xenograft.
Primary antibodies specific to Hsp90, HIF-1α, VEGF, Actin and HRP conjugated secondary antibodies (Santa Cruz Biotechnology, California and Cell Signaling Technology, USA) were used for Western blot. Ganetespib was provided by Synta Pharmaceuticals, Lexington, Mass. and Matrigel was purchased from BD Biosciences.
Cells were harvested at the end of treatment and lysed in the RIPA protein extraction buffer (Sigma-Aldrich, Saint Louis, Mo., USA) containing the protease inhibitor cocktail. Equal amounts of protein fractions of lysates were resolved over SDS-PAGE and transferred on to PVDF membrane. Membranes were incubated with primary antibodies followed by HRP-conjugated secondary antibodies. Bound antibodies were visualized using enhanced chemiluminescence. To confirm equal loading, membranes were verified and re-probed with an antibody specific for the housekeeping gene, anti-β-actin.

[2] = system: AGS (wt-p53 and mut-KRAS); assay: 72 hr viability by CTG, gastric cancer cells; assay type: cell-based; conditions: viability by CTG (upper)
Method: (§1) Many of the oncoproteins associated with gastric cancer and Hsp90 client proteins including HER2, MET, RAS and the FGFR family. Ganetespib was evaluated for its effect on the growth of AGS (wt-p53 and mut-KRAS) and MKN45 (wt-p53, wt-KRAS, MET amplified) gastric cancer cells.

[3] = system: MKN45 (wt-p53, wt-KRAS, MET amplified); assay: 72 hr viability by CTG, gastric cancer cells; assay type: cell-based; conditions: Homo sapiens, MKN-45, viability by CTG (upper)
Method: as §1

[4] = system: A549 NSCLC cells; assay: Mouse xenograft tumor model, ganetespib and BEZ235 (Example 9); assay type: in vivo, mice; conditions: ganetespib 50 mg/kg weekly i.v.; BEZ235 10 mg/kg 5 times a week p.o.; particularly at later time points; FIG. 8
From the text: Female immunodeficient CD-1 (nude) mice (Charles River Laboratories, Wilmington, Mass.) were maintained in a pathogen-free environment, and all in vivo procedures were approved by the Synta Pharmaceuticals Corp. Institutional Animal Care and Use Committee. A549 NSCLC cells (7.5×10^6) were subcutaneously implanted into the animals. Mice bearing established tumors (100-200 mm^3) were randomized into treatment groups of 8 and i.v. dosed via the tail vein with either vehicle, ganetespib formulated in 10/18 DRD (10% DMSO, 18% Cremophor RH 40, 3.6% dextrose, 68.4% water) or p.o. dosed with BEZ235 formulated in PEG300/NMP (90% PEG300, 10% N-Methylpyrrolidone). Animals were treated with ganetespib at 50 mg/kg weekly or BEZ235 at 10 mg/kg 5 times a week, either alone or in combination. Tumor growth inhibition was determined as described previously. See Proia et al, PLoS One. 2011; 6(4):e18552.

[5] = system: RCC; conditions: cited from earlier work
[6] = system: colon cancer first line; conditions: cited from earlier work
[7] = system: colon cancer second line; conditions: cited from earlier work
[8] = system: Chk1 and Chk2 phosphorylation; assay: Western blot of Chk1 and Chk2 phosphorylation after bleomycin in Detroit 562 cells; assay type: cell-based; conditions: Detroit 562, bleomycin (5 μM)
Method: Protein expression was measured at the indicated time points after bleomycin treatment.
Cell extracts from Detroit 562 head and neck cancer cells were treated with 100 nM of ganetespib 24 hours prior to receiving the DNA damaging agent bleomycin (5 μM). Protein expression was measured at the indicated time points after bleomycin treatment.

[9] = system: pancreatic cancer; conditions: cited from earlier work
[10] = system: prostate cancer; conditions: cited from earlier work
[11] = system: melanoma; conditions: cited from earlier work

Molecule: 3-2,4-dihydroxy-5-isopropyl-phenyl)-4-(1-methyl-indol-5-yl)-5-hydroxy-[1,2,4]triazole [ganetespib]
HIF-1α and VEGF protein levels [1]: significant reduction

IC50 [2]: 50 nM
IC50 [3]: 1 nM
Molecule: C=CCNC1=C2C[C@@H](C)C[C@H](OC)[C@H](O)[C@@H](C)/C=C(\C)[C@H](OC(N)=O)[C@@H](OC)/C=C\C=C(/C)C(=O)NC(=CC1=O)C2=O [17-AAG, 17-allyamino-geldanamycin]

Molecule: Cn1c(=O)n(-c2ccc(C(C)(C)C#N)cc2)c2c3cc(-c4cnc5ccccc5c4)ccc3ncc21 [BEZ235, reference compound]
Average tumor volume as compared to vehicle [4]: significantly reduced

IC50 [2]: 0.3 nM
IC50 [3]: 0.1 nM
Molecule: CC(=O)O[C@@]12CO[C@@H]1C[C@H](O)[C@@]1(C)C(=O)[C@H](O)C3=C(C)[C@@H](OC(=O)[C@H](O)[C@@H](NC(=O)OC(C)(C)C)c4ccccc4)C[C@@](O)([C@@H](OC(=O)c4ccccc4)[C@H]21)C3(C)C [Docetaxel]

Molecule: CO[C@H]1C[C@@H]2CC[C@@H](C)[C@@](O)(O2)C(=O)C(=O)N2CCCC[C@H]2C(=O)O[C@H]([C@H](C)C[C@@H]2CC[C@@H](OC(=O)C(C)(CO)CO)[C@H](OC)C2)CC(=O)[C@H](C)/C=C(\C)[C@@H](O)[C@@H](OC)C(=O)[C@H](C)C[C@H](C)/C=C/C=C/C=C/1C [temsirolimus]
OS HR ([5]; high LDH, P=0.002): 0.56
OS HR ([5]; normal LDH, P=0.51): 0.90

Molecule: Clc1ccc(Nc2nnc(Cc3ccncc3)c3ccccc23)cc1 [vatalanib]
PFS HR ([6]; LDH group not given, P=0.188): 0.88
PFS HR ([6]; high LDH, P=0.009): 0.67
PFS HR ([7]; LDH group not given, P=0.01): 0.83
PFS HR ([7]; high LDH, P<0.001): 0.63

Molecule: Bleomycin [reference compound]
Chk1 and Chk2 phosphorylation [8]: increased both Chk1 and Chk2 phosphorylation

Molecule: bevacizumab: anti-cancer agent cited from large randomized phase 2 and phase 3 studies
OS HR ([9]; high LDH, 95% CI 0.43-0.82): 0.59
HR ([9]; normal LDH, 95% CI 0.78-1.24): 0.98
OS HR ([10]; high LDH, P=0.029): 0.80
OS HR ([10]; normal LDH, P=0.87): 1.02
OS HR ([11]; high LDH, 95% CI 0.32-0.88): 0.53
OS HR ([11]; normal LDH, 95% CI 0.73-1.25): 1.25
